Source: ChEMBL document CHEMBL4145497, “Discovery of 2-aminothiazolyl berberine derivatives as effectively antibacterial agents toward clinically drug-resistant Gram-negative Acinetobacter baumanii” (Eur J Med Chem, 2018)
In brackets after ≈: the same amount, converted by molar mass.

Columns and labels:
Assay type in all cases: functional
Pseudomonas aeruginosa [1] = assay: Antibacterial activity against Pseudomonas aeruginosa ATCC 27853 after 18 to 24 hrs by CLSI two fold serial dilution method
Escherichia coli [2] = assay: Antibacterial activity against Escherichia coli DH52 after 18 to 24 hrs by CLSI two fold serial dilution method
Saccharomyces cerevisiae = assay: Antifungal activity against Saccharomyces cerevisiae ATCC 9763 by CLSI two fold serial dilution method
Staphylococcus aureus [3] = assay: Antibacterial activity against methicillin-resistant Staphylococcus aureus N315 after 18 to 24 hrs by CLSI two fold serial dilution method
Staphylococcus aureus [4] = assay: Antibacterial activity against Staphylococcus aureus ATCC 25923 after 18 to 24 hrs by CLSI two fold serial dilution method
Candida tropicalis = assay: Antifungal activity against drug-resistant Candida tropicalis by CLSI two fold serial dilution method
Escherichia coli [5] = assay: Antibacterial activity against drug-resistant Escherichia coli after 18 to 24 hrs by CLSI two fold serial dilution method
Klebsiella pneumoniae = assay: Antibacterial activity against drug-resistant Klebsiella pneumoniae after 18 to 24 hrs by CLSI two fold serial dilution method
Candida albicans [6] = assay: Antifungal activity against drug-resistant Candida albicans by CLSI two fold serial dilution method
Pseudomonas aeruginosa [7] = assay: Antibacterial activity against drug-resistant Pseudomonas aeruginosa after 18 to 24 hrs by CLSI two fold serial dilution method
Acinetobacter baumannii = assay: Antibacterial activity against drug-resistant Acinetobacter baumannii after 18 to 24 hrs by CLSI two fold serial dilution method
Cyberlindnera jadinii = assay: Antifungal activity against Candida utilis ATCC 9950 by CLSI two fold serial dilution method; conditions: Williopsis jadinii
Micrococcus luteus = assay: Antibacterial activity against Micrococcus luteus ATCC 4698 after 18 to 24 hrs by CLSI two fold serial dilution method
Pichia norvegensis = assay: Antifungal activity against Candida mycoderma ATCC 96918 by CLSI two fold serial dilution method
Candida albicans [8] = assay: Antifungal activity against Candida albicans ATCC 76615 by CLSI two fold serial dilution method
Enterococcus faecalis = assay: Antibacterial activity against drug-resistant Enterococcus faecalis after 18 to 24 hrs by CLSI two fold serial dilution method
Bacillus subtilis = assay: Antibacterial activity against Bacillus subtilis ATCC 21216 after 18 to 24 hrs by CLSI two fold serial dilution method
Candida parapsilosis = assay: Antifungal activity against Candida parapsilosis ATCC 22019 by CLSI two fold serial dilution method; conditions: Lodderomyces parapsilosis
Aspergillus flavus = assay: Antifungal activity against Aspergillus flavus ATCC 204304 by CLSI two fold serial dilution method
Aspergillus fumigatus = assay: Antifungal activity against drug-resistant Aspergillus fumigatus by CLSI two fold serial dilution method

| Compound | MIC (Pseudomonas aeruginosa [1]) [µM] | MIC (Escherichia coli [2]) [µM] | MIC (Saccharomyces cerevisiae) [µM] | MIC (Staphylococcus aureus [3]) [µM] | MIC (Staphylococcus aureus [4]) [µM] | MIC (Candida tropicalis) [µM] | MIC (Escherichia coli [5]) [µM] | MIC (Klebsiella pneumoniae) [µM] | MIC (Candida albicans [6]) [µM] | MIC (Pseudomonas aeruginosa [7]) [µM] | MIC (Acinetobacter baumannii) [µM] | MIC (Cyberlindnera jadinii) [µM] | MIC (Micrococcus luteus) [µM] | MIC (Pichia norvegensis) [µM] | MIC (Candida albicans [8]) [µM] | MIC (Enterococcus faecalis) [µM] | MIC (Bacillus subtilis) [µM] | MIC (Candida parapsilosis) [µM] | MIC (Aspergillus flavus) [µM] | MIC (Aspergillus fumigatus) [µM] |
| --- | --- | --- | --- | --- | --- | --- | --- | --- | --- | --- | --- | --- | --- | --- | --- | --- | --- | --- | --- | --- |
| CCOc1c(OC)cc(/C=N/NC(N)=S)c2c1CN1CCc3cc4c(cc3C1C2)OCO4 (configuration not stated) | 70 (≈ 31.8 µg/mL) | 280 (≈ 127 µg/mL) | 280 (≈ 127 µg/mL) | 140 (≈ 63.6 µg/mL) | 70 (≈ 31.8 µg/mL) | 280 (≈ 127 µg/mL) | 280 (≈ 127 µg/mL) | 280 (≈ 127 µg/mL) | 140 (≈ 63.6 µg/mL) | 70 (≈ 31.8 µg/mL) | 140 (≈ 63.6 µg/mL) | 280 (≈ 127 µg/mL) | 140 (≈ 63.6 µg/mL) | 280 (≈ 127 µg/mL) | 140 (≈ 63.6 µg/mL) | 140 (≈ 63.6 µg/mL) | 280 (≈ 127 µg/mL) | 70 (≈ 31.8 µg/mL) | 560 (≈ 255 µg/mL) | 140 (≈ 63.6 µg/mL) |
| CCCCCCCCOc1c(OC)cc(/C=N/Nc2nccs2)c2c1CN1CCc3cc4c(cc3C1C2)OCO4 (configuration not stated) | 230 (≈ 129 µg/mL) | 450 (≈ 253 µg/mL) | 460 (≈ 259 µg/mL) | – | 230 (≈ 129 µg/mL) | – | – | – | – | – | – | 460 (≈ 259 µg/mL) | 450 (≈ 253 µg/mL) | 460 (≈ 259 µg/mL) | 230 (≈ 129 µg/mL) | – | 450 (≈ 253 µg/mL) | 230 (≈ 129 µg/mL) | 460 (≈ 259 µg/mL) | – |
| COc1cc(/C=N/NC(N)=S)c2c(c1OCc1ccc(Cl)c(Cl)c1)CN1CCc3cc4c(cc3C1C2)OCO4 (configuration not stated) | 220 (≈ 129 µg/mL) | 110 (≈ 64.4 µg/mL) | 220 (≈ 129 µg/mL) | 220 (≈ 129 µg/mL) | 220 (≈ 129 µg/mL) | 110 (≈ 64.4 µg/mL) | 110 (≈ 64.4 µg/mL) | 220 (≈ 129 µg/mL) | 440 (≈ 258 µg/mL) | 220 (≈ 129 µg/mL) | 30 (≈ 17.6 µg/mL) | 220 (≈ 129 µg/mL) | 440 (≈ 258 µg/mL) | 440 (≈ 258 µg/mL) | 440 (≈ 258 µg/mL) | 440 (≈ 258 µg/mL) | 220 (≈ 129 µg/mL) | 220 (≈ 129 µg/mL) | 440 (≈ 258 µg/mL) | 3 (≈ 1.76 µg/mL) |
| COc1cc(/C=N/NC(N)=S)c2c(c1OCc1ccccc1)CN1CCc3cc4c(cc3C1C2)OCO4 (configuration not stated) | 250 (≈ 129 µg/mL) | 250 (≈ 129 µg/mL) | 250 (≈ 129 µg/mL) | 120 (≈ 62 µg/mL) | 120 (≈ 62 µg/mL) | 250 (≈ 129 µg/mL) | 250 (≈ 129 µg/mL) | 500 (≈ 258 µg/mL) | 250 (≈ 129 µg/mL) | 250 (≈ 129 µg/mL) | 120 (≈ 62 µg/mL) | 250 (≈ 129 µg/mL) | 250 (≈ 129 µg/mL) | 500 (≈ 258 µg/mL) | 250 (≈ 129 µg/mL) | 250 (≈ 129 µg/mL) | 250 (≈ 129 µg/mL) | 30 (≈ 15.5 µg/mL) | 250 (≈ 129 µg/mL) | 60 (≈ 31 µg/mL) |
| C#CCOc1c(OC)cc(/C=N/NC(N)=S)c2c1CN1CCc3cc4c(cc3C1C2)OCO4 (configuration not stated) | 550 (≈ 256 µg/mL) | 140 (≈ 65 µg/mL) | 280 (≈ 130 µg/mL) | 30 (≈ 13.9 µg/mL) | 70 (≈ 32.5 µg/mL) | 140 (≈ 65 µg/mL) | 140 (≈ 65 µg/mL) | 140 (≈ 65 µg/mL) | 140 (≈ 65 µg/mL) | 550 (≈ 256 µg/mL) | 4 (≈ 1.86 µg/mL) | 280 (≈ 130 µg/mL) | 280 (≈ 130 µg/mL) | 1100 (≈ 511 µg/mL) | 140 (≈ 65 µg/mL) | 550 (≈ 256 µg/mL) | 550 (≈ 256 µg/mL) | 280 (≈ 130 µg/mL) | 550 (≈ 256 µg/mL) | 20 (≈ 9.29 µg/mL) |
| CCCCCCCCOc1c(OC)cc(/C=N/NC(N)=S)c2c1CN1CCc3cc4c(cc3C1C2)OCO4 (configuration not stated) | 120 (≈ 64.6 µg/mL) | 240 (≈ 129 µg/mL) | 480 (≈ 259 µg/mL) | 120 (≈ 64.6 µg/mL) | 60 (≈ 32.3 µg/mL) | 120 (≈ 64.6 µg/mL) | 240 (≈ 129 µg/mL) | 240 (≈ 129 µg/mL) | 240 (≈ 129 µg/mL) | 120 (≈ 64.6 µg/mL) | 240 (≈ 129 µg/mL) | 240 (≈ 129 µg/mL) | 240 (≈ 129 µg/mL) | 240 (≈ 129 µg/mL) | 240 (≈ 129 µg/mL) | 120 (≈ 64.6 µg/mL) | 240 (≈ 129 µg/mL) | 120 (≈ 64.6 µg/mL) | 240 (≈ 129 µg/mL) | 60 (≈ 32.3 µg/mL) |
| CCn1cc(C(=O)O)c(=O)c2cc(F)c(N3CCNCC3)cc21 [NORFLOXACIN] | 50 (≈ 16 µg/mL) | 50 (≈ 16 µg/mL) | – | 30 (≈ 9.58 µg/mL) | 2 (≈ 0.639 µg/mL) | – | 1600 (≈ 511 µg/mL) | 800 (≈ 255 µg/mL) | – | 1600 (≈ 511 µg/mL) | 800 (≈ 255 µg/mL) | – | 6 (≈ 1.92 µg/mL) | – | – | 800 (≈ 255 µg/mL) | 3 (≈ 0.958 µg/mL) | – | – | – |
| OC(Cn1cncn1)(Cn1cncn1)c1ccc(F)cc1F [FLUCONAZOLE] | – | – | 50 (≈ 15.3 µg/mL) | – | – | 30 (≈ 9.19 µg/mL) | – | – | 10 (≈ 3.06 µg/mL) | – | – | 30 (≈ 9.19 µg/mL) | – | 10 (≈ 3.06 µg/mL) | 3 (≈ 0.919 µg/mL) | – | – | 7 (≈ 2.14 µg/mL) | 840 (≈ 257 µg/mL) | 840 (≈ 257 µg/mL) |
| CCCCCCCCCCCCOc1c(OC)cc(/C=N/Nc2nccs2)c2c1CN1CCc3cc4c(cc3C1C2)OCO4 (configuration not stated) | 410 (≈ 254 µg/mL) | 210 (≈ 130 µg/mL) | 830 (≈ 514 µg/mL) | – | 210 (≈ 130 µg/mL) | – | – | – | – | – | – | 410 (≈ 254 µg/mL) | 830 (≈ 514 µg/mL) | 50 (≈ 30.9 µg/mL) | 410 (≈ 254 µg/mL) | – | 30 (≈ 18.6 µg/mL) | 30 (≈ 18.6 µg/mL) | 410 (≈ 254 µg/mL) | – |
